# Data reported in article PMC7064328 (Environmental Health Perspectives, 2020).
# Test system: placenta
# Test: Placental thyroid hormone quantification (HPLC-MS/MS)
# Assay type: in vivo, mouse (CD-1)
# Settings: E17.5
# Method: Thyroid hormones (T3, triiodothyronine; T4, thyroxine; rT3, reverse triiodothyronine) in placenta were analyzed according to the methods described in Leonetti et al. ([2016]). Briefly, ∼300mg ( 207–526mg ) of two to three pooled placental tissues of same-sex embryos was homogenized and digested for 16 h overnight in PRONASE® Protease (Streptomyces griseus) solution (EMD Millipore Corp.). Each pooled sample of two to three placentas was considered as one biological replicate and included placentas from the same litter when possible. Three biological replicates were used for each treatment group and each sex. Samples were spiked with an antioxidant solution (containing 37.5mg/mL each of citric acid, ascorbic acid, and dithiothreitol) and C13 isotopically labeled internal standards (T4, T3, and rT3), and cold acetone was added to stop the digestion reaction. Samples were vortex mixed and centrifuged three times for 2 min at 10,000 relative centrifugal force (rcf), and the supernatants were collected and combined. Sample pH was adjusted with 6M hydrochloric acid to pH<2 . A liquid–liquid extraction with cyclopentane was performed and the cyclopentane layer discarded; briefly, 1mL of cyclopentane was added to the supernatant and vortexed before the sample was centrifuged for 3 min at 3,000 rcf and the cyclopentane layer discarded, and this was repeated three times. A liquid–liquid extraction with ethyl acetate was performed; briefly, 3mL of ethyl acetate was added to the extract and vortexed before being shaken on a plate shaker for 30 min and centrifuged for 3 min at 3,000 rcf, and the ethyl acetate layer collected; this was repeated three times. Ethyl acetate extracts were dried down to 50μL under a gentle nitrogen stream and resuspended in 1mL of 0.01M hydrochloric acid in 10% methanol. Samples were purified by solid-phase extraction using SampliQ Optimized Polymer Technology (OPT) cartridges ( 3mL , 50mg; Agilent Technologies). Final extracts in 400μL of 1:1 methanol:water were filtered using Whatman® Mini-UniPrep® Syringeless Filters [Polytetrafluoroethylene (PTFE), 0.2μm; GE Healthcare]. Extracts were analyzed on an Agilent high-performance liquid chromatography (HPLC) 1260 with a Synergi™ 50mm×2mm Polar-RP column ( 2.5μm; Phenomenex) coupled to an Agilent model 6460 tandem mass spectrometer with electrospray ionization (HPLC-MS/MS-ESI). Mobile phases consisted of 10 mM formic acid in methanol and 10 mM formic acid in water. Laboratory processing blanks were extracted alongside the placental tissues to monitor background levels. No TH were detected in the lab blanks. Method detection limits (MDLs) were calculated using a signal-to-noise value of 3 for each analyte (T3, T4, and rT3). Values were normalized to the wet weight of placenta extracted for a final value of nanogram hormone/gram placenta. Values below the MDL (T4, 0.84 ng/g; T3, 0.42 ng/g; rT3, 0.67 ng/g ) were imputed using the calculation MDL×0.5 , and values lacking a quantifiable peak on mass spectrometry were excluded from the analysis.
# TH concentrations in the placenta were quantified, and the ratios of T3:T4 and rT3:T4 in E17.5 placentas were assessed to evaluate potential disruption of peripheral TH control (e.g., impacts on thyroid deiodinase activity). Each end point was analyzed for sex×treatment interaction or for an overall effect of sex. Placenta TH were analyzed by analysis of variance using lme4 ([Bates et al. 2014]). Simultaneous tests for general linear hypotheses were corrected for multiple comparisons of means using Tukey contrasts in the package multcomp ([Hothorn et al. 2009]). Placental TH and their ratios were initially analyzed with embryo sex as an interaction term in the model, with the dose group as the predictor variable. Inclusion of a sex interaction or sex covariate in the final model was examined in a stepwise fashion. Internal dosimetry data were analyzed by analysis of variance. […]
structure (smiles),measurement,setting,value
"N.O=C(O)C(F)(OC(F)(F)C(F)(F)C(F)(F)F)C(F)(F)F (centres unmarked) [GenX, ammonium 2,3,3,3-tetrafluoro-2-(heptafluoropropoxy)propanoate]",Placental T3,2 mg/kg/d,"0.3±0.2 [5 (0, 5)] ng/g"
same,Placental T4,2 mg/kg/d,"5.3±1.7 [6 (6, 0)] ng/g"
same,Placental rT3,2 mg/kg/d,"1.7±0.8 [6 (6, 0)] ng/g"
same,Placental T3,10 mg/kg/d,"0.2±0 [6 (0, 6)] ng/g"
same,Placental T4,10 mg/kg/d,"6.1±1.1 [6 (6, 0)] ng/g"
same,Placental rT3,10 mg/kg/d,"1.6±0.3 [6 (6, 0)] ng/g"
same,Placental T3,"female, 2 mg/kg/d",0.3 ± 0.2 ng/g
same,Placental T4,"female, 2 mg/kg/d",5.9 ± 2.3 ng/g
same,Placental rT3,"female, 2 mg/kg/d",2.3 ± 0.6 ng/g
same,Placental T3,"female, 10 mg/kg/d",0.2 ± 0 ng/g
same,Placental T4,"female, 10 mg/kg/d",6.5 ± 1.4 ng/g
same,Placental rT3,"female, 10 mg/kg/d",1.9 ± 0.1 ng/g
same,Placental T3,"male, 2 mg/kg/d",0.2 ± 0 ng/g
same,Placental T4,"male, 2 mg/kg/d",4.7 ± 1.1 ng/g
same,Placental rT3,"male, 2 mg/kg/d",1.0 ± 0.2 ng/g
same,Placental T3,"male, 10 mg/kg/d",0.2 ± 0 ng/g
same,Placental T4,"male, 10 mg/kg/d",5.8 ± 0.7 ng/g
same,Placental rT3,"male, 10 mg/kg/d",1.3 ± 0.3 ng/g
"O=C(O)C(F)(F)C(F)(F)C(F)(F)C(F)(F)C(F)(F)C(F)(F)C(F)(F)F [PFOA, Perfluorooctanoic acid]",Placental T3,1 mg/kg/d,"0.2±0 [6 (0, 6)] ng/g"
same,Placental T3:T4 ratio,1 mg/kg/d,0.09±0.03 [6]
same,Placental T4,1 mg/kg/d,"2.5±1.0 [6 (6, 0)] ng/g"
same,Placental rT3,1 mg/kg/d,"0.7±0.4 [6 (3, 3)] ng/g"
same,Placental rT3:T4 ratio,1 mg/kg/d,0.30±0.21 [6]
same,Placental T3,5 mg/kg/d,"0.2±0 [4 (0, 4)] ng/g"
same,Placental T3:T4 ratio,5 mg/kg/d,0.07±0.02 [4]
same,Placental T4,5 mg/kg/d,"2.8±1.3 [6 (6, 0)] ng/g"
same,Placental rT3,5 mg/kg/d,"1.4±0.7 [5 (5, 0)] ng/g"
same,Placental rT3:T4 ratio,5 mg/kg/d,0.45±0.05 [5]
same,Placental T3,"female, 1 mg/kg/d",0.2 ± 0 ng/g
same,Placental T3:T4 ratio,"female, 1 mg/kg/d",0.104 ± 0.02
same,Placental T4,"female, 1 mg/kg/d",2.0 ± 0.4 ng/g
same,Placental rT3:T4 ratio,"female, 1 mg/kg/d",0.401 ± 0.22
same,Placental T3,"female, 5 mg/kg/d",0.2 ± 0 ng/g
same,Placental T3:T4 ratio,"female, 5 mg/kg/d",0.065 ± 0.02
same,Placental rT3,"female, 5 mg/kg/d",1.6 ± 1.0 ng/g
same,Placental rT3:T4 ratio,"female, 5 mg/kg/d",0.441 ± 0.05
same,Placental T3,"male, 1 mg/kg/d",0.2 ± 0 ng/g
same,Placental T3:T4 ratio,"male, 1 mg/kg/d",0.071 ± 0.02
same,Placental rT3,"male, 1 mg/kg/d",0.5 ± 0.4 ng/g
same,Placental rT3:T4 ratio,"male, 1 mg/kg/d",0.196 ± 0.17
same,Placental T3,"male, 5 mg/kg/d",0.2 ng/g
same,Placental T3:T4 ratio,"male, 5 mg/kg/d",0.083
same,Placental rT3,"male, 5 mg/kg/d",1.2 ± 0.1 ng/g
same,Placental rT3:T4 ratio,"male, 5 mg/kg/d",0.454 ± 0.07
